Assay results from patent US11986522B2, “Immunotherapeutic composition and uses thereof” (ARAVAX PTY LTD, priority 2013, dated 2024).
Entries after “also recorded” stand apart in the source; their conditions may differ. No end group written: not given here.

Columns and labels:
HLA-DR, HLA-DQ, HLA-DP = experiment: HLA class II blocking assays (anti-HLA mAb, TCL proliferation); assay type: cell-based, human; details: for antibody that blocked T cell recognition of the epitope: Ara h 2 epitopes
Method: Materials and Methods Subjects: Peanut-allergic adult subjects were recruited from The Alfred Allergy Clinic, Melbourne, Australia. […] Some subjects were genotyped (HLA-DRB1, -DQB1 and -DPB1, exon 2) by the Victorian Transplantation and Immunogenetics Service. The study was approved by The Alfred and Monash University Ethics Committees and informed written consent obtained from each subject. Antigens: Crude peanut extract (CPE) was prepared from commercial unsalted, dry-roasted peanuts as described elsewhere, (de Leon et al. Clin Exp Allergy. 2003; 33(9):1273-80) dialyzed against phosphate-buffered saline (PBS) and filter-sterilized (0.2 μm). Natural Ara h 1 and Ara h 2 were enriched from CPE based on published methodology. (de Jong E C et al. Clin Exp Allergy. 1998; 28(6):743-51) Briefly, CPE was buffer exchanged into 20 mM TRIS-bis-propane (TBP), pH 7.2, using Vivaspin columns (Sartorius Stedim Biotech S.A., Aubagne, France) and applied onto a 5 mL Mono-Q 10/10 column (Pharmacia FPLC System, St Albans, UK) equilibrated with TBP. After washing with TBP, a linear gradient of 30 mL 0-1 M NaCl/TBP was applied to elute bound proteins (1 mL/min). Fractions, 0.5 mL, were analyzed by SDS-PAGE and those containing Ara h 1 or Ara h 2 with minimal other proteins pooled and dialyzed against PBS. Endotoxin contents were 1.7, 4.0 and 78.0 EU/mg for CPE, Ara h 1 and Ara h 2 respectively (Endpoint Chromogenic LAL assay, Lonza, Walkersville, USA). Peptides (Mimotopes, Victoria, Australia and GenScript USA Inc, New Jersey, USA) were reconstituted at 1-4 mg/ml in 10% dimethyl sulfoxide/PBS (20-mers and truncated peptide sets) or PBS, 1-2% acetic acid or 0.1M ammonium bicarbonate buffers as specified (custom-synthesized core epitope peptides). All antigens were confirmed to be neither mitogenic nor toxic as described (Eusebius N P et al., Int Arch Allergy Immunol. 2002; 127(3):234-44). Generation of Ara h 1 and Ara h 2-specific CD4+ T-cell lines (TCL): Ara h 1 or Ara h 2-specific oligoclonal TCL were generated from peripheral blood mononuclear cells (PBMC) of peanut-allergic subjects using 5,6-carboxyfluorescein diacetate succinimidylester (CFSE)-based methodology. (Mannering S I et al., J Immunol Methods. 2005; 298(1-2):83-92; Prickett S R, et al., J Allergy Clin Immunol. 2011; 127(3):608-15 el-5). Briefly, culturing was performed in RPMI-1640 containing 2 mM L-glutamine, 100 IU/mL penicillin-streptomycin and 5% human AB serum (Sigma-Aldrich, St Louis, USA) (cRPMI). PBMC were labelled with 0.1 μM CFSE (Molecular Probes, Eugene, USA) and cultured (2.5×10^6/mL) with cRPMI alone, CPE (100 μg/mL), Ara h 1 or Ara h 2 (10 μg/mL), Ara h 1 or Ara h 2 20-mer-peptide pools (10 μg/mL/peptide) or as a control, tetanus toxoid (TT; 10 LfU/mL; Statens Serum Institute, Copenhagen, Denmark) for 7 days at 37° C. After staining with CD4-PE and 7AAD (BD Pharmingen, San Diego, USA), CD4+CFSEdim7AAD-cells were sorted (10 cells/well) into 96-U-well plates containing irradiated allogeneic feeder-cells, anti-CD3 (OKT-3), rIL-2 (Cetus, Emeryville, USA) and Fungizone (Invitrogen, Carlsbad, USA) as described. Cells were fed with rIL-2 as required and after 10-14 days, transferred to 48-well plates and tested for proliferation to Ara h 1 or Ara h 2 (10 μg/mL). Ara h 1 or Ara h 2-positive TCL were expanded with anti-CD3 and rIL-2 in T25 culture flasks (BD, Franklin Lakes, USA) for 10-12 days then tested for specificity (proliferation) to overlapping 20-mer peptides spanning the respective sequence (10 μg/mL). Core epitope sequences were mapped within selected 20-mers using peptide sets truncated from the N- or C-terminus of the 20-mer as described (Prickett S R, et alc. J Allergy Clin Immunol. 2011; 127(3):608-15 el-5). T-cell assays:All culturing was performed in RPMI-1640 containing 2 mM L-glutamine, 100 IU/mL penicillin-streptomycin and 5% heat-inactivated human AB serum (Sigma-Aldrich, St Louis, USA) (cRPMI). […]

[1] = test system: HLA-DRB1, -DQB1 and -DPB1; experiment: HLA-genotyping of subjects whose TCL recognise the epitopes; set-up: species or system human; details: for HLA allele presenting the epitope / present in all recognising subjects: HLA-typed subjects; for HLA-binding degeneracy (presented by): no shared allele between responding subjects
[2] = test system: PBMC CD4+ T cells of peanut-allergic subjects; experiment: 7-day CFSE assay of peptide-induced CD4+ T-cell proliferation/activation within whole PBMC; assay type: cell-based, human; details: screen of 25 new subjects
[3] = Peptide solubility in buffers; assay type: physicochemical
specific IgE = details: cited from earlier work
[4] = Table 4, dominant core T cell epitopes

Question: For ALMLPHFNSKAMVIVVV [50 core], which HLA-restriction (HLA-DR, HLA-DQ, HLA-DP; [4]) is on record?
Answer: The HLA-restriction was “HLA-DR”.

Question: And the HLA-restriction (HLA-DR, HLA-DQ, HLA-DP; Table 7, 10 candidate peptides)?
Answer: Its HLA-restriction is “HLA-DR”.

Question: What does the source list for ANLRPCEQHLM [4/5 core]?
Answer: antibody that blocked T cell recognition of the epitope (HLA-DR, HLA-DQ, HLA-DP): anti-HLA-DR; HLA-restriction (HLA-DR, HLA-DQ, HLA-DP; [4]): HLA-DR; also recorded: HLA-DQ; HLA-DR molecules presenting the epitope [1]: at least 2; HLA allele presenting the epitope / present in all recognising subjects [1]: HLA-DQB1*06:09; HLA-binding degeneracy (presented by) [1]: multiple HLA-DRB1 molecules

Question: For ANLRPSEQHLM [Peptide 21], which “T cell responses compared with longer version containing an additional epitope” value [2] is on record?
Answer: Its value is “Induced equivalent T cell”.

Question: What does the source list for EFENNQRCMCEALQ [10/11 core]?
Answer: HLA-restriction (HLA-DR, HLA-DQ, HLA-DP; [4]): HLA-DQ; HLA allele presenting the epitope / present in all recognising subjects [1]: DRB1*15:01; HLA-binding degeneracy (presented by) [1]: multiple HLA-DQB1 molecules

Question: Which “T cell responses compared with longer version containing an additional epitope” value [2] does the source give for EFENNQRSMSEALQ [Peptide 23] here?
Answer: The value was “Induced equivalent T cell”.

Question: For ELNEFENNQRCM [10 core], which HLA-restriction (HLA-DR, HLA-DQ, HLA-DP; [4]) is on record?
Answer: The HLA-restriction was “HLA-DR”.

Question: With ELNEFENNQRSMSEALQ [10 + 10/11 core] as the molecule, how does the HLA-restriction (HLA-DR, HLA-DQ, HLA-DP; Table 7, 10 candidate peptides) read?
Answer: The HLA-restriction was “HLA-DR; also recorded: or -DQ”.

Question: What does the source list for “EVKPDKKNPQLQ (listed as Arachis hypogaea) [Peptide 15]”?
Answer: T cell responses compared with longer version containing an additional epitope [2]: Induced equivalent T cell; HLA-restriction (HLA-DR, HLA-DQ, HLA-DP; [4]): HLA-DR

Question: For “FQNLQNHRIV (listed as Arachis hypogaea) [23 core]”, which HLA-restriction (HLA-DR, HLA-DQ, HLA-DP; [4]) is on record?
Answer: The HLA-restriction was “HLA-DR”.

Question: For “FQNLQNHRIVQIEAKPNTLV (listed as Arachis hypogaea) [Peptide 1]”, which HLA-restriction (HLA-DR, HLA-DQ, HLA-DP; Table 7, 10 candidate peptides) is on record?
Answer: Its HLA-restriction is “HLA-DR”.

Question: For “GDVFIMPAAHPVAINASS (listed as Arachis hypogaea) [57 core]”, which HLA-restriction (HLA-DR, HLA-DQ, HLA-DP; [4]) is on record?
Answer: The HLA-restriction was “HLA-DR; also recorded: HLA-DQ”.

Question: And the HLA-restriction (HLA-DR, HLA-DQ, HLA-DP; Table 7, 10 candidate peptides)?
Answer: Its HLA-restriction is “HLA-DR; also recorded: HLA-DQ”.

Question: Which “solubility of the version without the added C-terminal ‘E’” value [3] does the source give for “GDVFIMPAAHPVAINASSE [Peptide 7, GDVFIMPAAHPVAINASSE]” here?
Answer: The value was “insoluble except in toxic buffers”.

Question: What about the “solubility in PBS, 0.1M NH4HCO3, or 1-2% acetic acid” value ([3]; redesigned new version for peptide 7) of the same molecule?
Answer: Its value is “soluble; peptide 7 in Table 7)”.

Question: With “KAMVIVVVNKG (KAMVIVVVNKGTGNLELVAVD; listed as Arachis hypogaea) [50/51 core]” as the molecule, how does the HLA-restriction (HLA-DR, HLA-DQ, HLA-DP; [4]) read?
Answer: The HLA-restriction was “HLA-DR”.

Question: For KAMVIVVVNKGTGNLELVAV [51 ‘core’], which HLA-restriction (HLA-DR, HLA-DQ, HLA-DP; [4]) is on record?
Answer: The HLA-restriction was “HLA-DR”.

Question: And the HLA-restriction (HLA-DR, HLA-DQ, HLA-DP; Table 7, 10 candidate peptides)?
Answer: Its HLA-restriction is “HLA-DR”.

Question: For NNFGKLFEVKPDKKNPQ [46 core], which HLA-restriction (HLA-DR, HLA-DQ, HLA-DP; [4]) is on record?
Answer: The HLA-restriction was “HLA-DR”.

Question: With “NNFGKLFEVKPDKKNPQLQ (listed as Arachis hypogaea) [46 + 47 core]” as the molecule, how does the HLA-restriction (HLA-DR, HLA-DQ, HLA-DP; Table 7, 10 candidate peptides) read?
Answer: The HLA-restriction was “HLA-DR”.

Question: Which results are given for RELRNLPQQCGLRA [15 core]?
Answer: antibody that blocked T cell recognition of the epitope (HLA-DR, HLA-DQ, HLA-DP): anti-HLA-DR; HLA-binding degeneracy (presented by) [1]: multiple HLA-DRB1 molecules

Question: Which HLA-restriction (HLA-DR, HLA-DQ, HLA-DP; [4]) does the source give for “RIVQIEAKPNTLV (listed as Arachis hypogaea) [24 core]” here?
Answer: The HLA-restriction was “HLA-DR”.

Question: What does the source list for SQLERANLRPCEQ [4 core]?
Answer: antibody that blocked T cell recognition of the epitope (HLA-DR, HLA-DQ, HLA-DP): anti-HLA-DP; HLA-restriction (HLA-DR, HLA-DQ, HLA-DP; [4]): HLA-DP; HLA allele presenting the epitope / present in all recognising subjects [1]: DPB1*04:01

Question: With “VEIKEGALMLPHFNSKA (listed as Arachis hypogaea) [Peptide 4]” as the molecule, how does the HLA-restriction (HLA-DR, HLA-DQ, HLA-DP; [4]) read?
Answer: The HLA-restriction was “HLA-DQ”.

Question: And the HLA-restriction (HLA-DR, HLA-DQ, HLA-DP; Table 7, 10 candidate peptides)?
Answer: The HLA-restriction was “HLA-DQ”.

Question: What does the source list for WSTRSSENNEGVIVKVSKE [40 core]?
Answer: HLA-restriction (HLA-DR, HLA-DQ, HLA-DP; [4]): HLA-DQ; HLA-restriction (HLA-DR, HLA-DQ, HLA-DP; Table 7, 10 candidate peptides): HLA-DQ

B1: Ara h 2: major peanut allergen, glycoprotein of the conglutin seed storage family (protein, listed as Arachis hypogaea)
chain: LTILVALALFLLAAHASARQQWELQGDRRCQSQLERANLRPCEQHLMQKIQRDEDSYERDPYSPSQDPYSPSPYDRRGAGSSQHQERCCNELNEFENNQRCMCEALQQIMENQSDRLQGRQQEQQFKRELRNLPQQCGLRAPQRCDLDVESGGRDRY
Question: With B1 as the molecule, how does the “sera reactive with Ara h 2” value (specific IgE; Burks et al, 1992) read?
Answer: Its value is 6 out of 6.

Question: And the “subjects with specific IgE to purified natural Ara h 2” value (specific IgE; de Jong's group)?
Answer: Its value is “approximately 78%”.

Question: What about the “subjects possessing specific IgE to Ara h 2” value (specific IgE; western blotting of crude peanut extract, Clarke) of the same molecule?
Answer: Its value is 71%.

Question: What about the “subjects possessing IgE towards recombinant form” value (specific IgE; western blotting, Kleber-Janke et al.) of the same molecule?
Answer: Its value is 85%.
